Experimental findings from patent US8188148B2, “Substituted 1,3-diphenylpropane derivatives, preparations and uses thereof” (Genfit, priority 2006, dated 2012) are described below.

For assay [1], the system named is PPARs target genes (PDK4, ApoCIII). Kind of assay: Hepatic gene expression by quantitative RT-PCR in E2/E2 mouse. The class given is in vivo. As to conditions: E2/E2 mouse, 5, 10, and 50 mpk, 8 days, normalized to 36B4. As to the method:
The effectiveness of the compounds according to the invention is also evaluated by measuring, in the hepatic tissue, the expression of genes involved in lipid and/or glucid metabolism and in energy dissipation. Each level of gene expression is normalized regarding the expression level of the reference gene 36B4. The induction factor, i.e. the ratio between the relative signal (induced by the compound according to the invention) and the average of the relative values obtained with the control group, is then calculated. The higher the induction factor is, the more the compound promotes hepatic gene expression. […]
The agonist properties of PPARα previously measured in vitro should, in the liver, lead to an over-expression of the target genes directly under the control of the PPARα. […]
Gene expression analysis by quantitative RT-PCR Total RNA is extracted from liver fragments by using a NucleoSpin® 96 RNA kit (Macherey Nagel, Hoerdt, France) according to the manufacturer's instructions.
1 μg of total RNA (quantified by using the Ribogreen RNA quantification kit (Molecular Probes)) is then reverse-transcribed into complementary DNA by means of a 1 hour reaction at 37° C. in a total volume of 20 μl containing a 1× buffer (Sigma), 1.5 mM of DTT, 0.18 mM of dNTPs (Promega), 200 ng of pdN6 (Amersham), 30 U of RNase inhibitor (Sigma), and 1 μl of MMLV-RT (Sigma). […]

Assay [2] has as its system PPARs target genes (PDK4, UCP2). Put plainly: Hepatic and skeletal muscle gene expression by quantitative RT-PCR in db/db mouse. The class given is in vivo. The conditions noted are these: 50 mpk, 28 days. As to the method: The effectiveness of the compounds according to the invention is also evaluated by measuring, in the hepatic and muscular (skeletal) tissues, the expression of genes involved in lipid and/or glucid metabolism and in energy dissipation. Each level of gene expression is normalized regarding the expression level of the reference gene 36B4 in the hepatic tissue, or regarding the expression level of the reference gene 18S in the gastrocnemius skeletal muscle. The induction factor, i.e. the ratio between the relative signal (induced by the compound according to the invention) and the average of the relative values obtained with the control group, is then calculated. The higher the induction factor is, the more the greater the compound promotes gene expression. The final result is represented as the average of the induction values obtained with each experimental group. • FIG. 4-8: Expression of PDK4 in the hepatic tissue of the db/db mouse, after 28 days of treatment with compound 1 and compound 3, administered at 50 mpk • FIG. 4-9: Expression of UCP2 (uncoupling protein 2) in the skeletal muscle tissue of the db/db mouse, after 28 days of treatment with compound 1 and compound 3, administered at 50 mpk
Total RNA was extracted from liver fragments by using a NucleoSpin® 96 RNA kit (Macherey Nagel, Hoerdt, France) according to the manufacturer's instructions.
Total RNA was extracted from gastrocnemius skeletal muscle fragments by using a RNeasy® Fibrous Tissue kit (Qiagen) according to the manufacturer's instructions.
1 μg of total RNA (quantified by spectrophotometry) was then reverse-transcripted into complementary DNA by means of a 1 hour reaction at 37° C. in a total volume of 20 μl containing a 1× buffer (Sigma), 1.5 mM of DTT, 0.18 mM of dNTPs (Promega), 200 ng of pdN6 (Amersham), 30 U of RNase inhibitor (Sigma), and 1 μl of MMLV-RT (Sigma).
The PCR quantitative experiments were carried out using the MyiQ Single-Color Real-Time PCR Detection System (Biorad, Marnes-la-Coquette, France) and were performed using the iQ SYBR Green Supermix kit according to the provider's recommendations, in 96-well plates in 5 μl of a diluted reverse-transcription solution at a hybridization temperature of 55° C. The specific primer pairs of the genes being studied were used:
The amount of fluorescence emitted is directly proportional to the amount of complementary DNA present at the beginning of the reaction and amplified during the PCR. For each target studied, a range of solutions is performed with successive dilutions of mixtures of a few microliters of different reverse-transcription solutions. The relative levels of expression of each target are thus determined by using efficiency curves obtained with the points relative to the range of PCR solutions. […]

As for `Cc1cc(CCC(=O)c2ccc(OC(F)(F)F)cc2)cc(C)c1OC(C)(C)C(=O)O` [Compound 1, 2-[2,6-dimethyl-4-[3-[4-(trifluoromethyloxy)phenyl]-3-oxo-propyl]phenoxy]-2-methyl-propanoic acid], in assay [1], the “hepatic expression of the gene coding for ApoCIII” value is listed as “reduction”. Moreover, the “hepatic expression of the gene coding for PDK4” value in assay [1] and in assay [2] (hepatic tissue) was “significant increase” each time. Moreover, in assay [2] (gastrocnemius skeletal muscle), the “expression of the gene coding for UCP2 in the skeletal muscle” value is on record as “reduction”.
